Patent publication US7498326B2, “Compounds” (Glaxo Group Limited, priority 2002, dated 2009)
Structures can show the parent of a compound that is named as a salt.

Assay: MIC of test compounds against various organisms
Type: cell-based
Conditions: versus all these organisms: S. epidermidis CL7, S. aureus WCUH29, S. pneumoniae 1629, S. pyogenes CN10, H. influenzae ATCC 49247, E. faecalis 2, M. catarrhalis Ravasio, E. coli 7623
Protocol: The MIC (μg/ml) of test compounds against various organisms was determined including: S. epidermidis CL7, S. aureus WCUH29, S. pneumoniae 1629, S. pyogenes CN10, H. influenzae ATCC 49247, E. faecalis 2, M. catarrhalis Ravasio, E. coli 7623. Examples 1, 5, 6, 7, 8, 11, 13 have an MIC≦2 μg/ml versus all these organisms.

Row | SMILES | MIC [µg/mL]
1 | COc1ccc2cccc(C(O)CN3CCC(NCc4ccc5c(n4)NC(=O)CO5)CC3)c2n1 (stereo not drawn) [Example 8, 6-{[(1-{2-hydroxy-2-[2-(methyloxy)-8-quinolinyl]ethyl}4-piperidinyl)amino]methyl}-2H-pyrido[3,2-b][1,4]oxazin-3(4H)-one] | ≤ 2
2 | O=C1CSc2ccc(CN[C@H]3CCN(CCc4ccnc5ccc6c(c45)OCCO6)C[C@H]3F)nc2N1 [Example 4, 6({(3R,4S)-1-[2-(2,3-Dihydro-[1,4]dioxino[2,3-f]quinolin-10-yl)-ethyl]-3-fluoro-piperidin-4-ylamino}-methyl)-4H-pyrido[3,2-b][1,4]thiazin-3-one] | ≤ 16
3 | COc1cnc2cccc(C(O)CN3CCC(NCc4ccc5c(n4)NC(=O)CS5)CC3)c2n1 (racemic) [Example 5, 6-{[(1-{(2R/S)-2-hydroxy-2-[3-(methyloxy)-5-quinoxalinyl]ethyl}-4-piperidinyl)amino]methyl}-2H-pyrido[3,2-b][1,4]thiazin-3(4H)-one dihydrochloride] | ≤ 2
4 | N#Cc1ccc2nccc(CCN3CCC(NCc4ccc5c(n4)NC(=O)CO5)CC3)c2c1 [Example 1, 4-2-{4-[(3-Oxo-3,4-dihydro-2H-pyrido[3,2-b][1,4]oxazin-6-ylmethyl)-amino]-piperidin-1-yl}-ethyl)-quinoline-6-carbonitrile dihydrochloride] | ≤ 2
5 | N#Cc1ccc2nccc(CCN3CC[C@H](NCc4ccc5c(n4)NC(=O)CO5)[C@H](O)C3)c2c1 (stereo in doubt) [Example 12, 4-[2-(3-hydroxy-4-{[(3-oxo-3,4-dihydro-2H-pyrido[3,2-b][1,4]oxazin-6-yl)methyl]amino}-1-piperidinyl)ethyl]-6-quinolinecarbonitrile (E1 isomer)] | ≤ 16
6 | N#Cc1ccc2nccc(CCN3CC[C@H](NCc4ccc5c(n4)NC(=O)CS5)[C@H](O)C3)c2c1 [Example 11, 4-[2-(3-hydroxy-4-{([(3-oxo-3,4-dihydro-2H-pyrido[3,2-b][1,4]thiazin-6-yl)methyl]amino}-1-piperidinyl)ethyl]-6-quinolinecarbonitriledihydrochloride (E2 isomer)] | ≤ 2
7 | Clc1cnc2ccc3c(c2c1CCN1CCC(NCc2cc4c(cn2)OCCO4)CC1)OCCO3 [Example 7, {1-[2-(9-Chloro-2,3-dihydro-[1,4]dioxino[2,3-f]quinolin-10-yl)-ethyl]-piperidin-4-yl}-(2,3-dihydro-[1,4]dioxino[2,3-c]pyridin-7-ylmethyl)-amine dihydrochloride] | ≤ 2
8 | COc1cnc2cccc(C(O)CN3CCC(NCc4cc5c(cn4)OCCO5)CC3)c2n1 (stereo not drawn) [Example 6, (1R/S)-2-{4-[(2,3-dihydro[1,4]dioxino[2,3-c]pyridin-7-ylmethyl)amino]1-1-piperidinyl}-1-[3-(methyloxy)-5-quinoxalinyl]ethanol dihydrochloride] | ≤ 2

Same assay, conditions: versus some of these organisms (which of the eight listed strains is not stated)

Row | SMILES | MIC [µg/mL]
9 | O=C1CSc2ccc(CNC3CCN(CCc4ccnc5ccccc45)CC3)nc2N1 [Example 9, 6-[({1-[2-(4-quinolinyl)ethyl]-4-piperidinyl}amino)methyl]-2H-pyrido[3,2-b][1,4]thiazin-3(4H)-one dihydrochloride] | ≤ 16
